Data: patent publication US20240279190A1, “COMPOUNDS FOR MODULATING PLATELET-TYPE 12-(S)-LIPOXYGENASE AND METHODS OF USE FOR SAME” (The Regents of The University of California, priority 2021, published 2024)

Experiments:
[1] = tested on: human islets; assay: Glucose stimulated insulin secretion (GSIS) of human islets treated with PIC; format: cell-based
Experimental: Human islets from nondiabetic donors were received from the Integrated Islet Distribution Program or Prodo Laboratories (Aliso Viejo, CA) (Table 1). Characteristics of islets and donors are summarized in the below table. Islets were incubated in CMRL-1066 medium supplemented with 10% fetal bovine serum and 1% Pen-Strept overnight at 37° C. in 5% CO2 for recovery from shipment. On the next day, islets were transferred to CMRL-1066 supplemented with 5% fetal bovine serum and 1% Pen-Strept. A portion of the islets were randomly selected and incubated with a mixture of human PICs, […] tumor necrosis factor α, […] interferon-γ, and […] IL-1β (all from BD Biosciences, San Jose, CA) in the presence or absence of 1 μmol/L compound LOX-12-001. Compound LOX-12-001 was added 30 minutes before the addition of pro-inflammatory cytokines (PIC).
Use of Krebs-Ringer buffer (KRB) for glucose-stimulated insulin secretion (GSIS) was previously published. For batch assays, islets treated with PIC in the presence or absence of compound LOX-12-001 (1 μM) for 24 hours were transferred to KRB without glucose and were incubated for 1 hour at 37° C. in 5% CO2 in the absence of PIC and compound LOX-12-001. Thereafter, 50 islet equivalents (IEQs) per well were transferred to six-well plates filled with 1 mL of KRB containing 3 mmol/L or 18 mmol/L of glucose and were incubated for 1 hour at 37° C. in 5% CO2. Each condition was performed in triplicate. After incubation, supernatant was collected for determination of insulin secretion by human insulin enzyme-linked immunosorbent assay (Mercodia, Winston-Salem, NC).
Data are presented as mean±standard error of the mean and were analyzed using Two-way Annova analysis of variance Sidak's multiple comparison test (Prism software, Irvine, CA) as indicated in each figure. P<0.05 was considered significant.

[2] = target: T1, 12-LOX mutant F352L (Homo sapiens, UniProt P18054, F352L); assay: UV-Vis-based IC50 assay, F352L mutant; format: biochemical
T1 construct: 6xHis (N); made in house; pFastBac1 shuttle vector
T1 sequence (P18054 1-663 F352L): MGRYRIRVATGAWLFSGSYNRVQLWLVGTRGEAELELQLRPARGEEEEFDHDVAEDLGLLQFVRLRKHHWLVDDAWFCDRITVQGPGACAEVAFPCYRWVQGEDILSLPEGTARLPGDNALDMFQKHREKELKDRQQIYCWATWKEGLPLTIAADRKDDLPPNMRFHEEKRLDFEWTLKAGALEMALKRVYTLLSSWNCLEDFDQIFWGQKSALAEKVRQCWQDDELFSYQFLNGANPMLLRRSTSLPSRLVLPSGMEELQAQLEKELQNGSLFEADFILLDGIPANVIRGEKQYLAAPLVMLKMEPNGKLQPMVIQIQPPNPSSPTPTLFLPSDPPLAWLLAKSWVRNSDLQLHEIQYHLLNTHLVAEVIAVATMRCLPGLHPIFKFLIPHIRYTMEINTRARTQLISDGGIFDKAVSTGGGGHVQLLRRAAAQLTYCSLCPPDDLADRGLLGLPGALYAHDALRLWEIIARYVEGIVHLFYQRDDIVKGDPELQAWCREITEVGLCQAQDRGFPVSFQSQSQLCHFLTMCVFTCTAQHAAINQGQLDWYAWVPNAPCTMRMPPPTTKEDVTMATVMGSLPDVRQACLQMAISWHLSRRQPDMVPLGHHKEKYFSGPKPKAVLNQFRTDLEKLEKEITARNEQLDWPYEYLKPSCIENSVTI
Excerpt: Based on the ML355 binding mode predicted by the modeling, all residues within 5 Å of any atom of ML355 were selected for experimental mutagenesis. The selected residues were replaced with amino acids with either bulkier or smaller side chains in order to determine what specific interactions play a role in inhibitor binding. […] The numbering refers to the UniProt accession number P18054 sequence, with the N-terminal methionine assigned as amino acid number one. The primers for all mutants were designed using the online QuikChange Primer Design tool (http://www.genomics.agilent.com/primerDesignProgram.jsp) from Agilent Technologies (CA, USA). The mutations were introduced by using the QuikChange® II XL site-directed mutagenesis kit from Agilent, following the instructions in the protocol provided. […]
The wild type 12-LOX (wt-12-LOX) enzyme and its mutants were expressed as fusion proteins, with an N-terminal 6×His tag, and were affinity purified by nickel-iminodiacetic acid agarose using FPLC (Biorad).
The percent inhibition was determined by comparing the enzyme rates of the control (DMSO solvent) and the inhibitor sample by following the formation of the conjugated diene product at 234 nm (ε=25,000 M^−1cm^−1). […] The substrate concentration was quantitatively determined by allowing the enzymatic reaction to go to completion in the presence of soybean LOX-1. […]

Compound: COc1cccc(CNc2ccc(S(=O)(=O)Nc3nc4c(ccc5ccccc54)s3)cc2)c1O [Compound LOX-12-001, 4-((2-hydroxy-3-methoxybenzyl)amino)-N-(naphtho[1,2-d]thiazol-2-yl)benzenesulfonamide]
- insulin secretion ([1]; 3 mmol/L glucose, PIC plus 1 μM compound for 24 hrs): 140+/−3 mU/L
- insulin secretion ([1]; 3 mmol/L glucose, compound only (1 μM), no PIC): 25+/−5 mU/L
- insulin secretion ([1]; 18 mmol/L glucose, PIC plus 1 μM compound for 24 hrs): 352+/−10 mU/L
- insulin secretion ([1]; 18 mmol/L glucose, compound only (1 μM), no PIC): 128+/−13 mU/L
- IC50 ([2]; F352L): 490 ± 50 nM
- fold increase in IC50 compared to wt12-LOX ([2]; F352L vs wt12-LOX): 9.8 fold
